Test results taken from the supplement of paper PMC10627819.

Assays:
[1] = system: S. pneumoniae D39V; experiment: fitness (endpoint OD595 vs no drug) (fraction); higher = more growth
Outline: (§1)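 Bacterial fitness was scored as optical density at the stationary-phase transition relative to the robust mean of no-drug control wells. Scores are capped at 1. The growth data were OD595 readings every 30 min for 14 h at 37 °C, background-subtracted against the first reading, from 384-well plates inoculated at OD595 0.01 in TSB, LB Lennox or CY.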

[2] = system: B. subtilis 168; experiment: Bliss interaction score (quartile over a dose matrix) (fitness difference); higher = more antagonism (negative = synergy)
Outline: (§2)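 The Bliss score is observed fitness minus expected fitness, where the expected value is the product of single-drug fitness values inferred from combination data. Fitness is OD595 at entry into stationary phase normalised to the plate's robust no-drug mean and capped at 1. Scores are reported as quartiles spanning technical, biological and donor/recipient replicates.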

[3] = system: S. aureus DSM 20231; experiment: as above
Outline: as §2

[4] = system: S. aureus Newman; experiment: as above
Outline: as §2

[5] = system: S. pneumoniae D39V; experiment: as above
Outline: as §2

[6] = system: B. subtilis 168; experiment: fitness (endpoint OD595 vs no drug) (fraction); higher = more growth
Outline: as §1
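For Bliss interaction score (quartile over a dose matrix) in this document: first quartile when negative (synergy) and third quartile when positive (antagonism).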
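For fitness (endpoint OD595 vs no drug) in this document: OD595 on entry to stationary phase over no-drug wells; at most 1.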

Cc1ncc([N+](=O)[O-])n1CCO [Metronidazole] + O=C1CN(/N=C/c2ccc([N+](=O)[O-])o2)C(=O)N1 [Nitrofurantoin]
fitness, [1]
Details	first compound 1.073 µg/mL	first compound 1.25 µg/mL	first compound 2.145 µg/mL	first compound 2.5 µg/mL	first compound 4.29 µg/mL	first compound 5 µg/mL
partner 1.285 µg/mL	–	0.954	–	0.983	–	0.948
partner 2 µg/mL	0.93	–	0.945	–	0.89	–
partner 2.57 µg/mL	–	0.95	–	0.948	–	0.965
partner 4 µg/mL	0.929	–	0.919	–	0.902	–
partner 8 µg/mL	0.774	–	0.805	–	0.751	–

[1], partner 5.14 µg/mL, one replicate
Details	fitness
first compound 1.25 µg/mL	0.936
first compound 2.5 µg/mL	0.973
first compound 5 µg/mL	0.989

Details	Bliss interaction score
[2]	0.0755
[3]	0.0482
[4]	-0.0503
[5]	0.0483

CN(C)c1cc(NC(=O)CNC(C)(C)C)c(O)c2c1C[C@H]1C[C@H]3[C@H](N(C)C)C(O)=C(C(N)=O)C(=O)[C@@]3(O)C(O)=C1C2=O [Tigecycline] + COc1cc(Cc2cnc(N)nc2N)cc(OC)c1OC [Trimethoprim]
fitness, [6], one replicate
Details	partner 0.1 µg/mL	partner 0.125 µg/mL	partner 0.2 µg/mL	partner 0.25 µg/mL	partner 0.4 µg/mL	partner 0.5 µg/mL	partner 1 µg/mL	partner 2 µg/mL
first compound 0.039 µg/mL	0.879	0.739	0.77	–	0.58	–	0.505	0.438
first compound 0.078 µg/mL	0.896	0.727	0.754	–	0.577	–	0.455	0.408
first compound 0.125 µg/mL	–	0.898	–	0.749	–	0.694	–	–
first compound 0.156 µg/mL	0.883	0.758	0.814	–	0.546	–	0.402	0.357
first compound 0.25 µg/mL	–	0.798	–	0.546	–	0.55	–	–
first compound 0.5 µg/mL	–	0.87	–	0.695	–	0.633	–	–

fitness, [6]
Details	first compound 0.039 µg/mL	first compound 0.078 µg/mL	first compound 0.156 µg/mL
partner 0.25 µg/mL	0.657	0.653	0.677
partner 0.5 µg/mL	0.567	0.532	0.529

Details	Bliss interaction score
[2]	0.121
[3]	-0.0664
[4]	-0.0503
[5]	-0.119

CO/N=C(\C(=O)N[C@@H]1C(=O)N2C(C(=O)O)=C(COC(N)=O)CS[C@H]12)c1ccco1 [Cefuroxime] + CCC[C@@H]1C[C@@H](C(=O)N[C@@H]([C@H]2O[C@H](SC)[C@H](O)[C@@H](O)[C@H]2O)[C@@H](C)O)N(C)C1 [Lincomycin]
fitness, [6], one replicate
Details	first compound 0.04875 µg/mL	first compound 0.0975 µg/mL	first compound 0.195 µg/mL	first compound 0.39 µg/mL	first compound 0.78 µg/mL	first compound 1.562 µg/mL	first compound 3.125 µg/mL	first compound 6.25 µg/mL
partner 0.1 µg/mL	0.88	0.8	–	0.388	0.386	0.303	0.248	0.156
partner 0.2 µg/mL	0.865	0.713	–	0.358	0.372	0.265	0.19	0.137
partner 0.4 µg/mL	–	–	–	0.373	0.319	0.265	0.175	0.101
partner 0.8 µg/mL	0.505	0.467	0.359	–	–	–	–	–
partner 1.6 µg/mL	0.498	0.428	0.323	–	–	–	–	–

fitness, [6]
Details	first compound 0.04875 µg/mL	first compound 0.0975 µg/mL	first compound 0.195 µg/mL
partner 0.1 µg/mL	–	–	0.554
partner 0.2 µg/mL	–	–	0.521
partner 0.4 µg/mL	0.682	0.644	0.396

Details	Bliss interaction score
[2]	0.0554
[3]	-0.223
[4]	-0.0658
[5]	0.0595

COc1cccc2c1C(=O)c1c(O)c3c(c(O)c1C2=O)C[C@@](O)(C(=O)CO)C[C@@H]3O[C@H]1C[C@H](N)[C@H](O)[C@H](C)O1 [Doxorubicin] + CO[C@H]1/C=C/O[C@@]2(C)Oc3c(C)c(O)c4c(O)c(c(/C=N/N5CCN(C)CC5)c(O)c4c3C2=O)NC(=O)/C(C)=C\C=C\[C@H](C)[C@H](O)[C@@H](C)[C@@H](O)[C@@H](C)[C@H](OC(C)=O)[C@@H]1C [Rifampicin]
fitness, [1]
Details	first compound 0.25 µg/mL	first compound 0.5 µg/mL	first compound 1 µg/mL
partner 0.025 µg/mL	0.985	0.991	0.866
partner 0.05 µg/mL	–	0.94	–
partner 0.1 µg/mL	0.323	0.397	0.318

[1], partner 0.2 µg/mL, one replicate
Details	fitness
first compound 0.25 µg/mL	0
first compound 0.5 µg/mL	0
first compound 1 µg/mL	0

Details	Bliss interaction score
[2]	0.0845
[3]	-0.0908
[4]	-0.029
[5]	-0.058

CO/N=C(\C(=O)N[C@@H]1C(=O)N2C(C(=O)O)=C(COC(C)=O)CS[C@H]12)c1csc(N)n1 [Cefotaxime] + CO[C@H]1/C=C/O[C@@]2(C)Oc3c(C)c(O)c4c(O)c(c(/C=N/N5CCN(C)CC5)c(O)c4c3C2=O)NC(=O)/C(C)=C\C=C\[C@H](C)[C@H](O)[C@@H](C)[C@@H](O)[C@@H](C)[C@H](OC(C)=O)[C@@H]1C [Rifampicin]
fitness, [1]
Details	first compound 0.0018 µg/mL	first compound 0.0035 µg/mL	first compound 0.007 µg/mL
partner 0.025 µg/mL	0.96	0.964	0.798
partner 0.1 µg/mL	–	–	0.159

[1], partner 0.2 µg/mL, one replicate
Details	fitness
first compound 0.0018 µg/mL	0
first compound 0.0035 µg/mL	0
first compound 0.007 µg/mL	0

Details	Bliss interaction score
[2]	0.0961
[3]	0.0866
[4]	0.0597
[5]	-0.0838

COc1ccc(C[C@H](N)C(=O)N[C@H]2[C@@H](O)[C@H](n3cnc4c(N(C)C)ncnc43)O[C@@H]2CO)cc1 [Puromycin] + CO[C@H]1/C=C/O[C@@]2(C)Oc3c(C)c(O)c4c(O)c(c(/C=N/N5CCN(C)CC5)c(O)c4c3C2=O)NC(=O)/C(C)=C\C=C\[C@H](C)[C@H](O)[C@@H](C)[C@@H](O)[C@@H](C)[C@H](OC(C)=O)[C@@H]1C [Rifampicin]
[1], partner 0.025 µg/mL, one replicate
Details	fitness
first compound 1 µg/mL	0.914
first compound 2 µg/mL	0.856
first compound 4 µg/mL	0.691

fitness, [1]
Details	first compound 1 µg/mL	first compound 2 µg/mL	first compound 4 µg/mL
partner 0.05 µg/mL	0.747	0.753	–
partner 0.2 µg/mL	0.135	0.0783	0.0597

Details	Bliss interaction score
[2]	0.0301
[3]	0.0391
[4]	0.0233
[5]	-0.0708

COc1cccc2c1C(=O)c1c(O)c3c(c(O)c1C2=O)C[C@@](O)(C(=O)CO)C[C@@H]3O[C@H]1C[C@H](N)[C@H](O)[C@H](C)O1 [Doxorubicin] + C[C@@H](O)[C@H]1C(=O)N2C(C(=O)O)=C(SCCNC=N)C[C@H]12 [Imipenem]
fitness, [1]
Details	partner 0.005 µg/mL	partner 0.0065 µg/mL	partner 0.01 µg/mL	partner 0.013 µg/mL	partner 0.02 µg/mL	partner 0.026 µg/mL
first compound 0.25 µg/mL	0.954	0.913	0.958	0.836	0.949	0.831
first compound 0.5 µg/mL	0.981	0.858	0.958	0.844	0.971	0.842
first compound 1 µg/mL	0.909	0.858	0.877	0.894	0.872	0.789

Details	Bliss interaction score
[2]	-0.197
[3]	-0.0485
[4]	-0.0256
[5]	0.0651

O=C(O)c1cn(C2CC2)c2cc(N3CCNCC3)c(F)cc2c1=O [Ciprofloxacin] + O=C1CN(/N=C/c2ccc([N+](=O)[O-])o2)C(=O)N1 [Nitrofurantoin]
fitness, [1]
Details	partner 1.285 µg/mL	partner 2 µg/mL	partner 2.57 µg/mL	partner 4 µg/mL	partner 8 µg/mL
first compound 0.125 µg/mL	0.921	0.914	0.932	0.906	0.692
first compound 0.25 µg/mL	0.895	–	0.903	–	–
first compound 0.5 µg/mL	0.704	–	0.72	–	0.437

fitness, [1], one replicate
Details	partner 2 µg/mL	partner 4 µg/mL	partner 5.14 µg/mL	partner 8 µg/mL
first compound 0.125 µg/mL	–	–	0.877	–
first compound 0.25 µg/mL	0.731	0.679	0.879	0.56
first compound 0.5 µg/mL	–	–	0.627	–

Details	Bliss interaction score
[2]	0.129
[3]	0.0292
[4]	-0.0569
[5]	0.106

CO/N=C(\C(=O)N[C@@H]1C(=O)N2C(C(=O)O)=C(COC(C)=O)CS[C@H]12)c1csc(N)n1 [Cefotaxime] + O=C1CN(/N=C/c2ccc([N+](=O)[O-])o2)C(=O)N1 [Nitrofurantoin]
fitness, [1]
Details	partner 1.285 µg/mL	partner 2 µg/mL	partner 2.57 µg/mL	partner 4 µg/mL	partner 8 µg/mL
first compound 0.0018 µg/mL	0.974	0.94	0.959	0.944	0.873
first compound 0.0035 µg/mL	0.963	0.92	0.965	0.916	0.822
first compound 0.007 µg/mL	0.923	0.844	0.923	0.821	0.733

[1], partner 5.14 µg/mL, one replicate
Details	fitness
first compound 0.0018 µg/mL	0.981
first compound 0.0035 µg/mL	0.945
first compound 0.007 µg/mL	0.894

Details	Bliss interaction score
[2]	-0.157
[3]	0.0224
[4]	0.0592
[5]	0.142

C[C@@H]1O[C@@H]1P(=O)(O)O [Fosfomycin] + CO[C@H]1/C=C/O[C@@]2(C)Oc3c(C)c(O)c4c(O)c(c(/C=N/N5CCN(C)CC5)c(O)c4c3C2=O)NC(=O)/C(C)=C\C=C\[C@H](C)[C@H](O)[C@@H](C)[C@@H](O)[C@@H](C)[C@H](OC(C)=O)[C@@H]1C [Rifampicin]
fitness, [1]
Details	first compound 1.25 µg/mL	first compound 2.5 µg/mL	first compound 5 µg/mL
partner 0.025 µg/mL	0.987	0.969	0.806
partner 0.05 µg/mL	0.986	–	–
partner 0.1 µg/mL	–	–	0.318

[1], partner 0.2 µg/mL, one replicate
Details	fitness
first compound 1.25 µg/mL	0
first compound 2.5 µg/mL	0
first compound 5 µg/mL	0

Details	Bliss interaction score
[2]	-0.0436
[3]	0.036
[4]	0.0181
[5]	0.0822

C[C@H]1c2cccc(O)c2C(=O)C2=C(O)[C@]3(O)C(=O)C(C(N)=O)=C(O)[C@@H](N(C)C)[C@@H]3[C@@H](O)[C@@H]21 [Doxycycline] + C/C(=C\C(=O)OCCCCCCCCC(=O)O)C[C@@H]1OC[C@H](C[C@@H]2O[C@H]2[C@@H](C)[C@H](C)O)[C@@H](O)[C@H]1O [Pseudomonic acid]
fitness, [1], one replicate
Details	partner 0.03 µg/mL	partner 0.06 µg/mL	partner 0.12 µg/mL
first compound 0.003875 µg/mL	0.973	0.887	0.585
first compound 0.00775 µg/mL	0.943	0.839	0.614

fitness, [1]
Details	first compound 0.0155 µg/mL	first compound 0.031 µg/mL	first compound 0.062 µg/mL
partner 0.03 µg/mL	0.993	0.937	0.821
partner 0.06 µg/mL	0.878	0.845	0.857
partner 0.12 µg/mL	0.604	0.608	0.562

Details	Bliss interaction score
[2]	-0.0363
[3]	-0.0104
[4]	-0.0168
[5]	0.0875

O=C(O)c1cn(C2CC2)c2cc(N3CCNCC3)c(F)cc2c1=O [Ciprofloxacin] + CO[C@H]1/C=C/O[C@@]2(C)Oc3c(C)c(O)c4c(O)c(c(/C=N/N5CCN(C)CC5)c(O)c4c3C2=O)NC(=O)/C(C)=C\C=C\[C@H](C)[C@H](O)[C@@H](C)[C@@H](O)[C@@H](C)[C@H](OC(C)=O)[C@@H]1C [Rifampicin]
fitness, [1]
Details	first compound 0.125 µg/mL	first compound 0.25 µg/mL	first compound 0.5 µg/mL
partner 0.025 µg/mL	0.954	0.84	0.795
partner 0.05 µg/mL	–	–	0.688

[1], partner 0.2 µg/mL, one replicate
Details	fitness
first compound 0.125 µg/mL	0
first compound 0.25 µg/mL	0
first compound 0.5 µg/mL	0

Details	Bliss interaction score
[2]	0.162
[3]	-0.0712
[4]	0.0614
[5]	0.0532
